Test results as given in publication PMC9581132, “Cross clinical-experimental-computational qualification of in silico drug trials on human cardiac purkinje cells for proarrhythmia risk prediction” (Frontiers in Toxicology, 2022).
pIC50: −log10 of the molar value. “Also recorded” adds a separate entry of the source. Read-outs that look alike come from different tables or passages of the source.

Legend:
[1] = set-up: method as in Woosley and Romer, 1999; key: 1: Known risk; 2: Conditional risk; NC: Not classified, i.e., evidence was not enough to add it to any risk category; conditions: CredibleMeds category; ref Woosley and Romer, 1999; cited from earlier work
rabbit Purkinje fibers = test: In vitro drug assay on rabbit Purkinje fibers (microelectrode AP recordings); conditions: for EADs occurrence in rabbit experiments / Risk classification based on EADs occurrence, in vitro rabbit: slow pacing; for EADs occurrence in rabbit experiments: across tested concentrations; for Risk classification based on EADs occurrence, in vitro rabbit: compared with clinical risk; for ΔAPD90 Exp: Normal pacing (1 Hz)
hKv4.3 = target: T1, hKv4.3 (Homo sapiens, UniProt Q9UK17); test: Automated patch clamp (QPatch), transient outward K+ current Ito; format: cell-based; conditions: room temperature; dash = no effect or IC50 much higher than tested concentrations
T1 construct: expressed in transfected cells; host or cells: HEK-293
T1 sequence (Q9UK17 1-655): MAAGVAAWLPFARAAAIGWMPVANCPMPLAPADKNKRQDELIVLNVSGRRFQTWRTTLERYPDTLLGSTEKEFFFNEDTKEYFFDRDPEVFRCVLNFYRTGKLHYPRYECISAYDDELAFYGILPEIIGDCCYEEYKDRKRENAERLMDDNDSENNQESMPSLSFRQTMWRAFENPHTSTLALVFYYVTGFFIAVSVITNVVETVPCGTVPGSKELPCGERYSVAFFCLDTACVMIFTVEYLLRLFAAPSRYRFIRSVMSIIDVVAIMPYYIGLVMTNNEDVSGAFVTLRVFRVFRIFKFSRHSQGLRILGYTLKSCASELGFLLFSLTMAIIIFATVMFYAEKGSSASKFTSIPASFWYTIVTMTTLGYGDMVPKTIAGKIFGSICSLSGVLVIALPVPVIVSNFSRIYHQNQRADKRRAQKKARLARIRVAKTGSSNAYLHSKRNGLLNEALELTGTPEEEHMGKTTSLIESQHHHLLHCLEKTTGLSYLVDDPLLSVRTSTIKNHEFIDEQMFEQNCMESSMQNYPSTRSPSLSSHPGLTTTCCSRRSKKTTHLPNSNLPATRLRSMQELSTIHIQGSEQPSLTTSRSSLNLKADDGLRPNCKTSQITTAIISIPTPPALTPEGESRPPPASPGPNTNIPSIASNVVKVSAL

rabbit hearts = conditions: cited from earlier work
hNav1.5 [2] = target: T2, hNav1.5 (Homo sapiens, UniProt Q14524); test: Automated patch clamp (QPatch), fast Na+ current INa; format: cell-based; conditions: room temperature; dash = no effect or IC50 much higher than tested concentrations
T2 construct: expressed in transfected cells; host or cells: HEK-293

hCav1.2 [3] = target: T3, hCav1.2 (Homo sapiens, UniProt Q13936); test: Automated patch clamp (QPatch), L-type Ca2+ current ICaL; format: cell-based; conditions: room temperature; dash = no effect or IC50 much higher than tested concentrations
T3 construct: expressed in transfected cells; host or cells: CHO

hNav1.5 [4] = target: T2, hNav1.5; set-up: method as in Crumb et al., 2016; conditions: ref Crumb et al., 2016; cited from earlier work
[5] = set-up: method as in Démolis et al., 2003; conditions: therapeutic doses; ref Démolis et al., 2003; cited from earlier work
hCav1.2 [6] = target: T3, hCav1.2; conditions: ref Crumb et al., 2016; cited from earlier work
hERG = target: T4, hERG (Homo sapiens, UniProt Q12809); conditions: ref Crumb et al., 2016; cited from earlier work
T4 construct: host or cells: CHO (hERG-CHO) and HEK-293 stably transfected with hERG cDNA

hiPSC-CMs = conditions: 100 µM; ref Blinova et al., 2018; Yu et al., 2019; cited from earlier work

T3 sequence (Q13936 whole entry): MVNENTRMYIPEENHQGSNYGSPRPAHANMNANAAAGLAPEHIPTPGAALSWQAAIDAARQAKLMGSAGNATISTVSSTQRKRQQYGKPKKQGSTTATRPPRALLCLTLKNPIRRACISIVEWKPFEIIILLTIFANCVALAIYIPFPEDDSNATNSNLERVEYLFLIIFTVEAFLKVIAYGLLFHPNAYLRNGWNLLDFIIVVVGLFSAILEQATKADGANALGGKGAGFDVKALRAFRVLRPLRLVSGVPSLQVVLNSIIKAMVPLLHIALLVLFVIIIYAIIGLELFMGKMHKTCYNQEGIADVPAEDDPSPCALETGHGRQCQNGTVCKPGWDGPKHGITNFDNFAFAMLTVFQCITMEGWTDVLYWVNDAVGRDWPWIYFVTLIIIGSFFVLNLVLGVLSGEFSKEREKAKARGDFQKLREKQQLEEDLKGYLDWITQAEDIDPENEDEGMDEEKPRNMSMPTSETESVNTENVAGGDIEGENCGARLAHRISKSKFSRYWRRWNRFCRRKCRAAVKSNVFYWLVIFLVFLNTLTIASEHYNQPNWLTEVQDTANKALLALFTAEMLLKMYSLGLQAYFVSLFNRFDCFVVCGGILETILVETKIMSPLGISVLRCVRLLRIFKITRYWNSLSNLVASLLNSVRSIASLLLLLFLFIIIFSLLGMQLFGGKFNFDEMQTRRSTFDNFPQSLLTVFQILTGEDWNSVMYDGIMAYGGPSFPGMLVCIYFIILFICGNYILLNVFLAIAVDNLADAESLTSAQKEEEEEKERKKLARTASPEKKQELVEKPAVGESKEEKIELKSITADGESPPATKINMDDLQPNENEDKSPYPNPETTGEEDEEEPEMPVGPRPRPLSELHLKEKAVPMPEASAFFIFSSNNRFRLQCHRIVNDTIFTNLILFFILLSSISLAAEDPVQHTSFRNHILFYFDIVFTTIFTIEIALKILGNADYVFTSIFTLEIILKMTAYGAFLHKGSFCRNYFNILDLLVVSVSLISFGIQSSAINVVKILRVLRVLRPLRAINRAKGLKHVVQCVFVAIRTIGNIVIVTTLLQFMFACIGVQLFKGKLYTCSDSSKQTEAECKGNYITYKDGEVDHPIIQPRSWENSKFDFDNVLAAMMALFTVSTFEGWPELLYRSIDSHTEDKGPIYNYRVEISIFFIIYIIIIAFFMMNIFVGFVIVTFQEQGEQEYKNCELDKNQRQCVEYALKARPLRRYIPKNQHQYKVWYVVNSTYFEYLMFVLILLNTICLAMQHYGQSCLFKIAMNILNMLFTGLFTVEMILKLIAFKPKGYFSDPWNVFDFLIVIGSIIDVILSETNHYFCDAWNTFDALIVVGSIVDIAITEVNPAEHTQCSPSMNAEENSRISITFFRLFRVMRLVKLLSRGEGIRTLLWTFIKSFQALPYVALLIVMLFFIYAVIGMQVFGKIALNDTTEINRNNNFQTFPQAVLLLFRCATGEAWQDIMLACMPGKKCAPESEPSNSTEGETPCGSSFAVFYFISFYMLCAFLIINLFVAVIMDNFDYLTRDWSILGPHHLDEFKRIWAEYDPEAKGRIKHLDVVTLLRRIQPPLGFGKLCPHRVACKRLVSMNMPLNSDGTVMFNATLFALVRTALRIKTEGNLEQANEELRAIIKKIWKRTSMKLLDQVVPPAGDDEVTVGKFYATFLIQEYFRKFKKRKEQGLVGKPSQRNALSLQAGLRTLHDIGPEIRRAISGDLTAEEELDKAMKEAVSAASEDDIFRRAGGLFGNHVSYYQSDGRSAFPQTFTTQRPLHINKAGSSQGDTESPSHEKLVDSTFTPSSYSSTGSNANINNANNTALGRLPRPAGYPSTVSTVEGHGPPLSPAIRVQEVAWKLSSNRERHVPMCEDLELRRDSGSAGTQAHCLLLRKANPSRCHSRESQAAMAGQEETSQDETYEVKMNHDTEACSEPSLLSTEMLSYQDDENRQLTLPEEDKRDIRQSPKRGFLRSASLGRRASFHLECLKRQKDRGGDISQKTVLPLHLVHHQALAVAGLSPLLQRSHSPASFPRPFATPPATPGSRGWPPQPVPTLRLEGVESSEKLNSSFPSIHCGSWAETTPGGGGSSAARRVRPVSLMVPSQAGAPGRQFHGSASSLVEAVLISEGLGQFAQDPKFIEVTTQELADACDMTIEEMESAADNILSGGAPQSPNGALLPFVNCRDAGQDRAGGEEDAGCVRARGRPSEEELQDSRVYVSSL
T2 sequence (Q14524 whole entry): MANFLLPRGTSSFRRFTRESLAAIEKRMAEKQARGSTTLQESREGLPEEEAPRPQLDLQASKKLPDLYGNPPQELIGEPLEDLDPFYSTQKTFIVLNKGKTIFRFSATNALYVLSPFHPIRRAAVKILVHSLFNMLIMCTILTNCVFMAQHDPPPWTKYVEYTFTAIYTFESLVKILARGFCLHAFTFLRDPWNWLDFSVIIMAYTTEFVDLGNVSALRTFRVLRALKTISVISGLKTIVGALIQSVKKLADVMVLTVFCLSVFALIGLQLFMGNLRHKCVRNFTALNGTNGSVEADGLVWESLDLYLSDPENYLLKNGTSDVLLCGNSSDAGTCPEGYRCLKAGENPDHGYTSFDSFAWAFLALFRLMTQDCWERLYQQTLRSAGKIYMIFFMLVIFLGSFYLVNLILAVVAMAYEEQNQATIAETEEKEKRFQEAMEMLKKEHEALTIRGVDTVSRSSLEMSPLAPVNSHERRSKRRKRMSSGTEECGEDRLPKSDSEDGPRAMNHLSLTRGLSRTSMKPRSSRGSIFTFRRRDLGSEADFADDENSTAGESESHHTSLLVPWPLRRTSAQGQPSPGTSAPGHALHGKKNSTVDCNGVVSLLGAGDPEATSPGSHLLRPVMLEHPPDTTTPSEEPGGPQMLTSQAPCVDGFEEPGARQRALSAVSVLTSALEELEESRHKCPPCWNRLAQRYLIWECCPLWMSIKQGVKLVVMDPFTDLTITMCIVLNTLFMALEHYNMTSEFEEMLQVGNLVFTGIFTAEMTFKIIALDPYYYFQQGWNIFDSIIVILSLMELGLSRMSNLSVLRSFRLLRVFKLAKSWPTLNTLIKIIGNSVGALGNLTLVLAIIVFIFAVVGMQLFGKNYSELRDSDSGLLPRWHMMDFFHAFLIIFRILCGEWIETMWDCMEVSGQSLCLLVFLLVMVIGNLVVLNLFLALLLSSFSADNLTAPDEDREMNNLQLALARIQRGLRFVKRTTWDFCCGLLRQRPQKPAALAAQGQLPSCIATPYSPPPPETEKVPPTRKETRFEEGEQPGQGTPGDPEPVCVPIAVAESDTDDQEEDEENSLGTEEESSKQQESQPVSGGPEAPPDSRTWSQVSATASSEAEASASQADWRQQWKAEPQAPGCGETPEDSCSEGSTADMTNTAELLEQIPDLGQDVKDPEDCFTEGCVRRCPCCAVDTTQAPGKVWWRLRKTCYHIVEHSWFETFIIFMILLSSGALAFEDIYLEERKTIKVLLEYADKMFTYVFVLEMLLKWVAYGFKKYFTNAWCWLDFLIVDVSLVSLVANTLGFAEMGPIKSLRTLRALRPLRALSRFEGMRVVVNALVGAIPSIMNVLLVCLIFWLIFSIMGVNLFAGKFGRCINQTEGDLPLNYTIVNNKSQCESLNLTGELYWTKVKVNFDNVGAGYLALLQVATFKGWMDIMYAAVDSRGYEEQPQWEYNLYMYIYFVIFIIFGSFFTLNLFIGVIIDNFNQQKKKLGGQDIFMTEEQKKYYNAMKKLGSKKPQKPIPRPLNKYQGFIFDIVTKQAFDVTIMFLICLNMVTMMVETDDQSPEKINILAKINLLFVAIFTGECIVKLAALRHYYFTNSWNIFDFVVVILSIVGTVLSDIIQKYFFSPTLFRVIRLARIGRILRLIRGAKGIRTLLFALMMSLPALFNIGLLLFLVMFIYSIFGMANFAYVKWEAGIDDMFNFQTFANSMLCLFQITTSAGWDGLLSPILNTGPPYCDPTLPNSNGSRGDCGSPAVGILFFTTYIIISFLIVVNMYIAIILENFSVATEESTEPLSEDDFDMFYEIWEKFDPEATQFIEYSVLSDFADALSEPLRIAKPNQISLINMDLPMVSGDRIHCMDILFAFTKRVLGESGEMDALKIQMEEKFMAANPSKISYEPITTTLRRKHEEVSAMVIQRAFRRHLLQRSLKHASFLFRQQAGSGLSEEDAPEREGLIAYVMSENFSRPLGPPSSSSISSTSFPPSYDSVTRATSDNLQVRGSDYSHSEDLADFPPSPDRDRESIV

| EADs occurrence in rabbit experiments (rabbit Purkinje fibers) | pIC50 (hKv4.3) | Risk classification based on EADs occurrence, in vitro rabbit (rabbit Purkinje fibers) | Structure (SMILES) | TdP risk [1] | further results |
| --- | --- | --- | --- | --- | --- |
| induced EADs | 4.66 |  | COc1ccc(CCN2CCC(Nc3nc4ccccc4n3Cc3ccc(F)cc3)CC2)cc1 [Astemizole] | 1 |  |
| no EADs were observed | 4.89 | misclassified | CC(C)COCC(CN(Cc1ccccc1)c1ccccc1)N1CCCC1 (stereo not drawn) [Bepridil] | 1 | EADs in rabbit hearts (rabbit hearts; up to 10 µM, ref Anno et al., 1984, Hondeghem et al., 2003): did not induce EADs; pIC50 (hNav1.5 [2]): 5.51 |
| induced EADs |  |  | COc1cc(N)c(Cl)cc1C(=O)NC1CCN(CCCOc2ccc(F)cc2)CC1OC (stereo not drawn) [Cisapride] | 1 | pIC50 (hCav1.2 [3]): 4.48 |
|  |  |  | CC[C@H]1OC(=O)[C@H](C)[C@@H](O[C@H]2C[C@@](C)(OC)[C@@H](O)[C@H](C)O2)[C@H](C)[C@@H](O[C@@H]2O[C@H](C)C[C@H](N(C)C)[C@H]2O)[C@](C)(OC)C[C@@H](C)C(=O)[C@H](C)[C@@H](O)[C@]1(C)O [Clarithromycin] | 1 | pIC50 (hNav1.5 [4]): 3.79; QT prolongation [5]: no QT prolongation at therapeutic doses; pIC50 (hCav1.2 [6]): 3.99; ΔAPD90 Exp (rabbit Purkinje fibers; 30 μM): 51%; pIC50 (hERG): 4.20 |
|  |  |  | CC(C)N(CCC(C(N)=O)(c1ccccc1)c1ccccn1)C(C)C (stereo not drawn) [Disopyramide] | 1 | pIC50 (hCav1.2 [3]): 3.94 |
|  |  |  | CN(CCOc1ccc(NS(C)(=O)=O)cc1)CCc1ccc(NS(C)(=O)=O)cc1 [Dofetilide] | 1 | ΔAPD90 Exp (rabbit Purkinje fibers; 0.01 μM): 113% |
| did not induce any EADs | 4.51 | correctly classified as safe | COC(=O)C1=C(C)NC(C)=C(C(=O)OC)C1c1ccccc1[N+](=O)[O-] [Nifedipine] |  |  |
|  |  |  | C=C[C@H]1C[N@@]2CC[C@H]1C[C@@H]2[C@@H](O)c1ccnc2ccc(OC)cc12 [Quinidine] | 1 |  |
| no EADs were observed |  | misclassified | COc1ccccc1OCC(O)CN1CCN(CC(=O)Nc2c(C)cccc2C)CC1 (stereo not drawn) [Ranolazine] | 2 | EADs in hiPSC-CMs (hiPSC-CMs): induced EADs; Effect in rabbit hearts (rabbit hearts; 10 µM, ref Frommeyer et al., 2012, Sossalla et al., 2014): anti-torsadogenic effects; pIC50 (hCav1.2 [3]): 3.81 |
|  |  |  | Cc1nc2n(c(=O)c1CCN1CCC(c3noc4cc(F)ccc34)CC1)CCCC2 [Risperidone] | 2 |  |
|  |  |  | CC(C)NCC(O)c1ccc(NS(C)(=O)=O)cc1 (stereo not drawn) [Sotalol] |  | ΔAPD90 Exp (rabbit Purkinje fibers; 30 μM): 96% |
| no EADs were observed | 4.17 | misclassified | CC(C)(C)c1ccc(C(O)CCCN2CCC(C(O)(c3ccccc3)c3ccccc3)CC2)cc1 (stereo not drawn) [Terfenadine] |  | Risk classification based on mean APD90 prolongation >10%, in vitro rabbit (rabbit Purkinje fibers; 1 Hz): false negative; AP prolongation in vitro rabbit experiments (rabbit Purkinje fibers; APD90 at 1 Hz, maximum over tested concentrations): up to 7% |

| Structure (SMILES) | EADs occurrence in rabbit experiments (rabbit Purkinje fibers) | pIC50 (hKv4.3) | Risk classification based on EADs occurrence, in vitro rabbit (rabbit Purkinje fibers) | TdP risk [1] | further results |
| --- | --- | --- | --- | --- | --- |
| COc1ccc([C@@H]2Sc3ccccc3N(CCN(C)C)C(=O)[C@@H]2OC(C)=O)cc1 [Diltiazem] | did not induce any EADs; also recorded: did not induce any repolarization abnormalities | 4.08 | correctly classified as safe |  |  |
